Assays:
Type in all cases: physicochemical
[1] = General observation on addition of HMB forms to liquids
[2] = Stability of product composition (physical appearance) with the addition of HMB, free acid and calcium salt forms; conditions: Ensure Clear, two flavors, 1 g CaHMB or 0.8 g HMB free acid in 40 ml
Description: • 1. N=2 (Two flavors of a commercially available ready-to-drink soluble-protein product; Ensure Clear, pH approximately 2.74) • 2. Label the glass bottles A1-A3 and B1-B3. The labels correspond to the following conditions:
• 3. To bottles A2 and B2 1 g of CaHMB MTI 1208-100-02 TSI 12070630 added. • 4. To bottles A3 and B3 0.8 g of HMB Free Acid MTI 1103-100-09 Lot 11010084 added. • 5. 40 ml of Peach flavored product added to the bottles labeled A1-A3. • 6. 40 ml of Blueberry Pomegranate flavored product added to the bottles labeled B1-B3. • 7. Bottles were sealed with rubber caps and crimped shut. Then, they were mixed well and placed on shelf. • 8. Appearances were noted and photos were taken daily (bottles were not disturbed).
Table 2 reports the physical appearance of the ready-to-drink soluble-protein product (n=2) following the addition of CaHMB or HMB free acid and mixing. HMB was not added to the control bottles. Day 1 was recorded after initial mixing.

[3] = Long term stability (appearance) in soluble-protein drinks; conditions: 42 days; ISOPURE protein drink, GNC protein juice, Gatorade Recover, Spartos protein water; 250 mg CaHMB or 200 mg HMB FA in 40 ml
Description: • 1. Rinse 12 glass bottles with ethanol and let air dry overnight. • 2. Label the glass bottles A1-A3, B1-B3, C1-C3 and D1-D3. The labels correspond to the following conditions:
• 3. To bottles A2-D2 CaHMB MTI 1208-100-02 TSI 12070630 was used. • 4. To bottles A3-D3 HMB Free Acid MTI 1103-100-09 Lot 11010084 was used. • 5. Add 40 ml of ISOPURE protein drink to A1-A3, 40 ml of GNC protein juice to B1-B3, 40 ml Gatorade Recover to C1-C3, and 40 ml Spartos protein water to D1-D3. • 6. Flush with nitrogen and seal the bottles with rubber caps and metal clamp caps. • 7. Mix well. • 8. Take photo of bottles A1-A3, B1-B3, C1-C3, and D1-D3 every Friday. The photos appear in FIG. 2a-2d. The following tables 6-9 provide the nutritional information for each of the liquids tested (ISOPURE, GNC Protein Juice, Gatorade G3-Recover, and Spartos protein water.)

[4] = Stability of HMB-acid at various concentrations in soluble protein (ISOPURE protein drink) over 120 days, HPLC
Description: This experiment was designed to observe the stability of HMB-acid at various concentrations in soluble protein over 120 days.
To analyze the stability of HMB free acid in the soluble protein (ISOPURE protein drink, Natures Best®, Hauppauge, N.Y.), different concentrations of HMB free acid were added to the recommended serving size of ISOPURE protein drink. The three concentrations were 300 mg/240 ml, 1000 mg/240 ml, and 3000 mg/240 ml. HMB free acid was measured for each solution using HPLC at 5 different time points: 0, 30, 60, 90, and 120 d. HMB free acid used was MTI 1301-100-03 (Lot 120111036). ISOPURE protein drink used was Lot 1212111132310. ISOPURE protein drink has a pH of approximately 2.54. All glassware and supplies used were autoclaved in preparation of the three different concentrations of HMB free acid in ISOPURE protein drink for the 5 different time points. Materials to be autoclaved were as follows: glass bottles, rubber and metal seals, pipette tips, and graduated cylinder. Autoclave Method #1 for dry goods in Building 3 of ISU Research Park was used.
• For bottles in group A, 60 mg of HMBFA into each of the five bottles was added, and then 48 ml of ISOPURE protein drink was added. The HMBFA concentration was 1.25 mg/ml. • For bottles in group B 200 mg of HMBFA into each of the five bottles was added, and then 48 ml of ISOPURE protein drink was added. The HMBFA concentration was 4.16 mg/ml. • For bottles in group C, 600 mg of HMBFA into each of the five bottles was, and then 48 ml of ISOPURE protein drink was added.
Each sample bottle was flushed with nitrogen and then the top of the bottle was sealed with rubber caps, crimped shut and mix well. • One bottle of each concentration was tested for HMB using SOP 113-04 HMB (modified standard curve), at Time 0, 30, 60, 90, and 120 d.
To prepare the samples for testing, 0.5 ml of the sample was transferred to a microcentrifuge tube in quadruplet. Then 0.25 ml of KIV internal standard added to standards and three of each sample set. Finally, 0.25 ml 0.2M phosphate buffer was added to the three samples with KIV internal standard and 0.5 ml 0.2M phosphate buffer to the samples not containing KIV.
The samples were considered stable with a ±5% of expected change HMB concentration over the four months with an allowable ±3% analytical variation. A linear regression was conducted on the data as a secondary measure of stability.

[5] = Day 1 (after initial mixing), pH approximately 2.74

SMILES	Changes in the physical appearance on addition ([1]; commercially available soluble-protein containing ready-to-drink products)	Physical appearance [2, 5]	Physical appearance ([2]; Day 7, bottles not disturbed)	Physical appearance ([2]; Day 14, bottles not disturbed)	Physical appearance ([2]; Day 21, bottles not disturbed)	Appearance of the liquids [3]	Going into solution when added to a liquid ([1]; added to a liquid, slight shaking)	Decrease in HMB free acid, of the expected amount ([4]; 300 mg/serving of soluble protein, 120 days (FIG. 3))	Linear decrease over time (linear regression) ([4]; 300 mg/serving, 120 days, p<0.05)	Decrease in HMB free acid, of the expected amount ([4]; 1000 mg/serving of soluble protein, 120 days (FIG. 4))	Linear decrease over time (linear regression) ([4]; 1000 mg/serving, 120 days, p<0.05)	Decrease in HMB free acid, of the expected amount ([4]; 3000 mg/serving of soluble protein, 120 days (FIG. 5))	Linear decrease over time (linear regression) ([4]; 3000 mg/serving, 120 days, p<0.05)	Stability in a drink containing soluble protein ([4]; room temperature, 120 days)	Changes in HMB concentration over time ([4]; three concentrations (300, 1000, 3000 mg/serving) in ISOPURE, 120 d)	Linear decrease over time (linear regression) ([4]; three concentrations in ISOPURE, 120 d, p>0.05)
CC(C)(O)CC(=O)[O-].CC(C)(O)CC(=O)[O-].[Ca+2] [CaHMB, reference compound]	sedimentation and clumping	Cloudy	Defined Separation	Defined Separation w/Particulates	Defined Separation w/Particulates	cloudy and contain precipitate	–	–	–	–	–	–	–	–	–	–
CC(C)(O)CC(=O)O [HMB free acid, β-Hydroxy-β-methylbutyrate]	–	Semi-Clear	Semi-Clear	Semi-Clear	Semi-Clear	clear and precipitate-free	goes into solution almost instantly	less than 8%	no significant linear decrease	less than 8%	no significant linear decrease	less than 8%	no significant linear decrease	remaining stable	less than 8.0%	no significant linear decrease

Reference: US20140272000A1, “Liquids and Foodstuffs Containing beta-hydroxy-beta-methylbutyrate (HMB) in the Free Acid Form and Methods of Manufacturing or Producing the Same” (Metabolic Technologies, Inc., priority 2013, published 2014)
